Measured values as given in patent US11571480B2, “Multi-ligand drug conjugates and uses thereof” (priority 2015, dated 2023).
Square brackets hold non-standard residues; d marks the D form. Peptide text beside a SMILES is read from it. * marks the point of attachment. Dolaproine = CO[C@@H]([C@@H]1CCCN1)[C@@H](C)C(=O)O; Dil = CC[C@H](C)[C@H](NC)[C@@H](CC(=O)O)OC; X1 = C[C@@H](N*)[C@@H](O)c1ccccc1; NMeV = CN[C@H](C(=O)O)C(C)C

Test system: breast cancer cell line HCC1954
Test: Cytotoxicity test of conjugate LDC10B
Format: cell-based, human
Details: HCC1954, Incubation Time 30 min

CC[C@H](C)[C@@H]([C@@H](CC(=O)N1CCC[C@H]1[C@H](OC)[C@@H](C)C(=O)N[C@H](C)[C@@H](O)c1ccccc1)OC)N(C)C(=O)[C@@H](NC(=O)[C@@H](NC)C(C)C)C(C)C [MMAE] (H-[NMeV]V[Dil][Dolaproine]-X1) showed an IC50 of 0.45 nM.
